These results are taken from ChEMBL document CHEMBL3880440, “Antagonists of the toll-like receptor 1/2 complex” (2014).

The source made the active and inactive calls. The rule behind the calls is not given here. Where only a bound is given, the exact number is not on record here.

Data set [1] addresses T1, Toll-like receptor 1/2 (Mus musculus) (UniProt Q9QUN7+Q9EPQ1). The experiment in a line: Antagonist activity at TLR1/2 in mouse RAW264.7 cells assessed as inhibition of Pam3CSK4-induced receptor activation by measuring NO production at 3 uM after 24 hrs. In kind it is cell-based.
A short description of data set [2]: Cytotoxicity against mouse RAW264.7 cells assessed as decrease in cell viability at 3 uM by MTT assay. Particulars: raw264.7, 3 µM. In kind it is cell-based.
For data set [3], the target named is Toll-like receptor 1/2 (Mus musculus, UniProt Q9EPQ1+Q9QUN7). The experiment in a line: (§1) Antagonist activity at TLR1/2 in mouse RAW264.7 cells assessed as inhibition of Pam3CSK4-induced receptor activation by measuring NO production after 24 hrs. In kind it is cell-based.
Chain of Toll-like receptor 1/2 (Q9QUN7 whole entry): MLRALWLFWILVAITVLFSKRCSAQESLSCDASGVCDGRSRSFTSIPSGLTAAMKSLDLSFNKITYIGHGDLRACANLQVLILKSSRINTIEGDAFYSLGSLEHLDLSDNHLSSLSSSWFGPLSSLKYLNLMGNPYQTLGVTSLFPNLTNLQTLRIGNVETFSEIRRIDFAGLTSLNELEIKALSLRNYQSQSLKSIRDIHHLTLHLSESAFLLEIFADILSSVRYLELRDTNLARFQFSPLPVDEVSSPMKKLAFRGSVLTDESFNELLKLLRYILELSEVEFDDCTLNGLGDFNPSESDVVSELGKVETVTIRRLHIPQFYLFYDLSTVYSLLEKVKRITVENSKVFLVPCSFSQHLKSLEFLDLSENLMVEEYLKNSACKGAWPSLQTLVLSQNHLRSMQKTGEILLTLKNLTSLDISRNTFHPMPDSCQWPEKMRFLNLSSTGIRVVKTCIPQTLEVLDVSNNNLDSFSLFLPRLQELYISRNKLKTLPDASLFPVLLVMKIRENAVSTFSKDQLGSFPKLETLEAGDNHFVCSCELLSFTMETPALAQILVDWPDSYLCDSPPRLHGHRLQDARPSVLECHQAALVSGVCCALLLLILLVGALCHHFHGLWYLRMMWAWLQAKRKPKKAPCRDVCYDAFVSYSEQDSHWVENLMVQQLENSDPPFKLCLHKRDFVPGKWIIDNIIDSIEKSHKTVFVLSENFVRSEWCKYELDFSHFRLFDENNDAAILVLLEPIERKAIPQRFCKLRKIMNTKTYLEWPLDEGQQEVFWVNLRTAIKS
Chain of Toll-like receptor 1/2 (Q9EPQ1 whole entry): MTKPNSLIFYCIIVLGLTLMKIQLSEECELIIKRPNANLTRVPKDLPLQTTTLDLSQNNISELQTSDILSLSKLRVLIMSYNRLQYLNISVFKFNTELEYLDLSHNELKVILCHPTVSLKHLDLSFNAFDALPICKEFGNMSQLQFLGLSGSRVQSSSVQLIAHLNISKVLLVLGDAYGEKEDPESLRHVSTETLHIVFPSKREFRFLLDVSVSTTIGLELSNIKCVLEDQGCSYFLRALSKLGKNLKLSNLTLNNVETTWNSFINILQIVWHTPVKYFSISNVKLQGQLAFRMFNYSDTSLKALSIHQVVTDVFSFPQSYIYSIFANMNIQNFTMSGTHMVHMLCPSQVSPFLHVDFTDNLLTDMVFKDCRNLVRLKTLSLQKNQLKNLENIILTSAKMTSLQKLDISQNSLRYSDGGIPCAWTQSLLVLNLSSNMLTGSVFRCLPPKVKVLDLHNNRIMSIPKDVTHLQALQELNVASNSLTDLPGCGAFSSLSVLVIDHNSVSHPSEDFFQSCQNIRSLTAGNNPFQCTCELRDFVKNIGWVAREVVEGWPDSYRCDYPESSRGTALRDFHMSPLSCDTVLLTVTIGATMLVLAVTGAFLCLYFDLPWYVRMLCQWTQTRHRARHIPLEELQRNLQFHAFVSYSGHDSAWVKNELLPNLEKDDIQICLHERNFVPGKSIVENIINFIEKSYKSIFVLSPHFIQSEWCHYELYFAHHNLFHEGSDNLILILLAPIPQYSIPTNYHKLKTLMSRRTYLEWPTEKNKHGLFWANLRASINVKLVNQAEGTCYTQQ
Data set [4] addresses T1, Toll-like receptor 1/2 (Mus musculus). The data set is described as §1. It counts as cell-based.
A short description of data set [5]: Cytotoxicity against mouse RAW264.7 cells assessed as decrease in cell viability at 8 uM by MTT assay. It counts as cell-based. The following applies: raw264.7, 8 µM. On the technique in general: Tetrazolium assays rely on reduction of a dye to a coloured formazan, in cell work by metabolically active cells.
Data set [6] deals with RAW264.7. As to the kind of experiment: Inhibition of Pam3CSK4-induced IL-1beta production in mouse RAW264.7 cells at 8 uM after 24 hrs by ELISA. It counts as functional, cell-based. (ELISA stands for enzyme-linked immunosorbent assay.)
The subject of data set [7] is RAW264.7. The experiment in a line: Inhibition of Pam3CSK4-induced TNF-alpha production in mouse RAW264.7 cells at 8 uM after 24 hrs by ELISA. In kind it is functional, cell-based.
In data set [8] the target is Toll-like receptor 1/2 (Homo sapiens) (UniProt O60603+Q15399). As to the kind of experiment: Antagonist activity at TLR1/2 in primary microglial cells (unknown origin) assessed as reduction in Pam3CSK4-induced IL-1beta mRNA expression level after 2 hrs. In kind it is cell-based.
The nature of data set [9]: Antiinflammatory activity in hippocampus (unknown origin) assessed as inhibition of Pam3CSK4-induced IL-1beta mRNA expression level at 5 to 50 ng coadministered with Pam3CSK4 via intra-cisterna magna measured after 2 hrs by RT-PCR analysis. In kind it is functional.
Data set [10] is described as follows: Antiinflammatory activity in hippocampus (unknown origin) assessed as inhibition of Pam3CSK4-induced TNF-alpha mRNA expression level at 5 to 50 ng coadministered with Pam3CSK4 via intra-cisterna magna measured after 2 hrs by RT-PCR analysis. In kind it is functional.
Data set [11] in a line: Antiinflammatory activity in hippocampus (unknown origin) assessed as inhibition of Pam3CSK4-induced IL-6 mRNA expression level at 5 to 50 ng coadministered with Pam3CSK4 via intra-cisterna magna measured after 2 hrs by RT-PCR analysis. In kind it is functional.

What is called inhibition is how much of the control response was suppressed. Broadly, the IC50 is the concentration that gives 50% inhibition.

Consider `O=C(Nc1ccc(Cl)c(Cl)c1)Nc1ccccc1O`, for which the inhibition in [1] was more than 70%. The Activity entry in data set [2] is given as “Non-Toxic”.

Turning to `COc1cc2cc(C(=O)OC(C)C)cc(O)c(=O)c2c(O)c1O`, the IC50 in [3] came out at 2470 nM.

As to `O=c1c(O)cccc2ccc(O)c(O)c12`, the half-maximal inhibitory concentration (IC50) in data set [3] stood at 2250 nM.

For `CCCCNC(=O)c1cc(O)c(=O)c2c(O)c(O)c(OC)cc2c1`, the IC50 in [3] is 1260 nM.

On to `CCCCCCCCOC(=O)c1cc(O)c(=O)c2c(O)c(O)c(OC)cc2c1`, for which, in [3], the IC50 turned out to be 720 nM.

For `CCCCCCCCCCCCCCOC(=O)c1cc(O)c(=O)c2c(O)c(O)c(OC)cc2c1`, in [3], the IC50 amounted to 3240 nM.

Take `CC(=O)Oc1cc2cccc(O)c(=O)c2c(O)c1O`: the IC50 in data set [3] turned out to be 4830 nM.

As for `CCCCOC(=O)c1cc(O)c(=O)c2c(O)c(O)c(OC)cc2c1`, in data set [3], the concentration for half-maximal inhibition (IC50) was 2830 nM.

On to `CCCCCCOC(=O)c1cc(O)c(=O)c2c(O)c(O)c(OC)cc2c1`, for which the results for the inhibition in data set [1], in data set [4] and in data set [8] were more than 70%, “Dose-dependent effect” and “Dose-dependent effect”, respectively. The Activity result in [5] is on record as “Non-Toxic”. In addition, the inhibition result in data set [6], in [7], in [9], in [10] and in [11] was “Active” throughout.

Consider `CCCCCCCCCCOC(=O)c1cc(O)c(=O)c2c(O)c(O)c(OC)cc2c1`, for which the IC50 in data set [3] came out at 1010 nM.

On to `COc1cc2cccc(OC)c(=O)c2c(O)c1OC`, for which the IC50 in data set [3] came out at 11700 nM.

`COc1cc2c(c(OC)c1OC)C(=O)C1(OC)C=CC2C2C(=O)OC(=O)C21` (stereo not given): the IC50 in data set [3] amounted to 74600 nM.

For the molecule `CN1CCN(C(=O)/C=C/c2ccc([N+](=O)[O-])o2)CC1`, in [1], the inhibition was more than 70%. Moreover, the Activity result in data set [2] is “Non-Toxic”.

With `O=[N+]([O-])c1cc(Cl)cc2c1nc(NCCO)c1ccccc12`, in data set [1], the inhibition was more than 70%. In data set [2], the Activity entry is “Non-Toxic”.

In the case of `CCOC(=O)c1cc(O)c(=O)c2c(O)c(O)c(OC)cc2c1`, in data set [3], the IC50 came out at 2830 nM.

As to `COC(=O)c1cc(O)c(=O)c2c(O)c(O)ccc2c1` [METHYL 7-DESHYDROXYPYROGALLIN-4-CARBOXYLATE], the IC50 in [3] is 9010 nM.

`C=C(C)[C@H]1Cc2c(ccc3c2O[C@@H]2COc4cc(OC)c(OC)cc4[C@@H]2C3=O)O1` [ROTENONE]: the inhibition in data set [1] is more than 70%. Moreover, the Activity result in data set [2] is “Non-Toxic”.

For the molecule `COc1cccc(NC(S)=Nc2ccc(O)cc2)c1`, in data set [1], the inhibition is more than 70%. Further, the Activity result in data set [2] is given as “Non-Toxic”.

In the case of `O=c1c(O)cccc2cc(F)c(O)c(O)c12`, the 50% inhibitory concentration (IC50) in data set [3] was found to be 22700 nM.

For the molecule `CC(=O)Oc1cc2cccc(OC(C)=O)c(=O)c2c(O)c1OC(C)=O`, the IC50 in [3] was determined as 1420 nM.

`CC(=O)Oc1cc2c(c(OC(C)=O)c1OC(C)=O)C(=O)C1(OC(C)=O)C=CC2C2C(=O)OC(=O)C21` (stereo not given): in [3], the IC50 was found to be 14800 nM.

Regarding `O=C(/C=C/c1ccc(O)c(O)c1)c1ccccc1O`, the inhibition in data set [1] is more than 70%. Also, in [2], the Activity entry is “Non-Toxic”.

Turning to `O=C(O)c1cc(O)c(=O)c2c(O)c(O)ccc2c1` [7-DESHYDROXYPYROGALLIN-4-CARBOXYLIC ACID], the half-maximal inhibitory concentration (IC50) in [3] was found to be 16500 nM.

For the molecule `Cc1cc(O)c(O)c2c(=O)c(O)cccc12`, in [3], the IC50 was 3130 nM.

As to `O=c1c(O)cccc2cc(O)c(O)c(O)c12` [PURPUROGALLIN], in [1], the inhibition is more than 70%. Besides, the Activity result in data set [2] is listed as “Non-Toxic”.

As to `CC(=O)Oc1cc2cccc(OC(C)=O)c(=O)c2c(OC(C)=O)c1OC(C)=O`, the IC50 in data set [3] was determined as 2350 nM.

Regarding `CC(=O)/C=C/Nc1ccccc1O`, the inhibition in data set [1] is more than 70%. For the same molecule, the Activity entry in [2] is “Non-Toxic”.

For `Oc1ccc(/N=C/c2c(O)ccc3ccccc23)cc1`, the inhibition in [1] was more than 70%. Besides, the Activity entry in data set [2] is on record as “Non-Toxic”.
